Results reported in patent US20250351832A1, “PHYTOCHEMICALS AS BIOPESTICIDES AND BIOSTIMULANTS” (KAY BEE BIO ORGANICS PVT. LTD., priority 2024, published 2025).
Like-named read-outs stand apart in the source and are kept apart here.

Assays:
[1] = tested on: Alternaria alternata; assay: In vitro poisoned food technique against fungus (Ex. 20); format: cell-based; conditions: poisoned food technique, PDA medium, dose 1 ml/gm/lit., after seven days
[2] = tested on: Alternaria alternata; assay: Alternaria leaf spot/blight on inoculated tomato plants (Ex. 28); format: in vivo; conditions: tomato plants, Alternaria alternata; after 7 days; dose 1 ml/gm/lit
[3] = tested on: tomato seedlings; assay: Response of tomato plants, greenhouse growth (Ex. 30); format: in vivo; conditions: tomato seedlings, dose 1 ml/gm/lit
[4] = tested on: chili seedlings; assay: Response of chili plants, greenhouse growth (Ex. 31); format: in vivo
[5] = tested on: Aphid
[6] = tested on: Mite; conditions: Dose 1 ml/gm/lit.; 48 hrs
[7] = tested on: Spodoptera litura; conditions: 72 h, 1 mL or g/L
[8] = tested on: Thrips; conditions: 48 h, 1 mL or g/L
[9] = tested on: Aphid; conditions: 48 h, 1 mL or g/L
[10] = tested on: Thrips; conditions: 48 h
[11] = cited from earlier work
[12] = tested on: Spodoptera litura; assay: whole plant or invertebrate; conditions: 72 h
[13] = tested on: Thrips; assay: whole plant or invertebrate; conditions: in Gossypium hirsutum, 48 h
[14] = tested on: Aphid; assay: whole plant or invertebrate; conditions: 48 h
[15] = tested on: Mealy Bug; assay: In vitro bio-efficacy against mealy bug (Ex. 16); conditions: in vivo
[16] = tested on: Mite; assay: Green house effect on mite, okra plants (Ex. 23); conditions: in vivo
[17] = tested on: Thrips; assay: Greenhouse effect on thrips, cotton plants (Ex. 27); conditions: in vivo
[18] = tested on: Mealy Bug; assay: Green house effect on mealy bugs, cotton plants (Ex. 24); conditions: in vivo
[19] = tested on: Helicoverpa armigera; assay: In vitro bio-efficacy against Helicoverpa armigera (Ex. 17); conditions: in vivo
[20] = tested on: Spodoptera litura; assay: Controlled conditions, Spodoptera litura on cabbage plants (Ex. 26); conditions: in vivo
[21] = tested on: Helicoverpa armigera; assay: Controlled conditions, Helicoverpa armigera on chickpea plants (Ex. 25); conditions: in vivo
[22] = chili seedlings, dose 1 ml/gm/lit, 5th day after application
[23] = chili seedlings, dose 1 ml/gm/lit, 10th day
[24] = chili seedlings, dose 1 ml/gm/lit, 10th day after application
[25] = Table 13, descriptive, no test described
[26] = read-out: % Corrected Mortality at 48 Hrs.
[27] = read-out: % Mortality at 48 Hrs.

C=CCc1ccc(OC)c(O)c1 [Chavibetol]
Mean colony Diameter (mm) [1]: 55.50 mm
inhibition of growth at 1 mL or g/L ([1]; vs untreated control, read-out: % Inhibition of growth): 36.9%
% Disease reduction over Control [2]: 47.11%
Plant Height 5th Day ([3]; 5th day after application): 7.26 cm
Stem Girth 5th Day ([3]; 5th day after application): 1.49 mm
Plant Height 10th Day ([3]; 10th day after application): 8.34 cm
Stem Girth 10th Day ([3]; 10th day after application): 2.25 mm
Plant Height % Increase over pre on 10th Day ([3]; 10th day): 36.50%
Stem Girth % Increase over pre on 10th Day ([3]; 10th day): 60.71%
CCI 5th Day ([3]; 5th day after application): 14.68
CCI % Increase over pre on 10th Day ([3]; 10th day): 32.22%
Root Length (cm) 10th Day ([3]; 10th day): 4.69 cm
CCI 10th Day ([3]; 10th day after application): 16.58
Root Length % Increase over control ([3]; 10th day, vs water control): 41.03%
CCI Pre [4]: 9.82
Plant Height (cm) Pre [4]: 4.39 cm
CCI 5th Day [4, 22]: 14.58
Plant Height (cm) 5th Day [4, 22]: 5.07 cm
CCI % Increase over pre on 10th Day [4, 23]: 52.55%
Plant Height % Increase over pre on 10th Day [4, 23]: 59.00%
Root Lenght (cm) 10th Day [4, 23]: 3.60 cm
Stem Girth % Increase over pre on 10th Day [4, 23]: 45.45%
CCI 10th Day [4, 24]: 14.98
Plant Height (cm) 10th Day [4, 24]: 6.98 cm
Root Lenght % Increase over control ([4]; chili seedlings, dose 1 ml/gm/lit, 10th day, vs water control): 31.63%
Total No. of dead insect at 48 Hrs. ([5]; 48 h): 5.50
% Corrected Mortality at 48 Hrs. ([5]; Dose 1 ml/gm/lit., 48 hrs): 48.57%
% Corrected Mortality at 48 Hrs. [6]: 18.92%
% Mortality at 48 Hrs. [6]: 25.00%
Total No. of dead insect at 72 Hrs. [7]: 4.25
Total No. of dead insect at 48 Hrs. [8]: 5.25
Total No. of dead insect at 48 Hrs. [9]: 55.00
Total No. of dead insect at 48 Hrs. [10]: 52.50
Antioxidant Activity - Mode of action [11, 25]: Increasing Antioxidative
Bactericidal Activity - Mode of action [11, 25]: Inhibit the reproduction
Insecticidal Activities - Mode of action [11, 25]: Repellent
Phytotonic Effect ([11]; Table 13, effect on plants, descriptive): trigger seed
mortality at 1 mL or g/L ([12]; read-out: % Corrected Mortality at 72 Hrs.): 39.5%
mortality at 1 mL or g/L ([12]; read-out: % Mortality at 72 Hrs.): 42.5%
mortality at 1 mL or g/L [13, 26]: 45.7%
mortality at 1 mL or g/L [13, 27]: 52.5%
mortality at 1 mL or g/L [14, 26]: 47.1%
mortality at 1 mL or g/L [14, 27]: 55%
% Corrected Mortality at 48 Hrs. [15]: 36.84%
% Mortality at 48 Hrs. [15]: 40.00%
% Corrected Mortality at 48 Hrs. [16]: 18.42%
% Mortality at 48 Hrs. [16]: 22.50%
% Corrected Mortality at 48 Hrs. [17]: 47.22%
% Corrected Mortality at 48 Hrs. [18]: 38.89%
% Mortality at 48 Hrs. [18]: 45.00%
% Corrected Mortality at 72 Hrs. [19]: 42.50%
% Mortality at 72 Hrs. [19]: 42.50%
% Corrected Mortality at 72 Hrs. [20]: 41.05%
% Mortality at 72 Hrs. [20]: 44.00%
% Corrected Mortality at 72 Hrs. [21]: 47.50%
% Mortality at 72 Hrs. [21]: 47.50%
